Results reported in publication PMC8218931, “Enhancement of oral bioavailability of quercetin by metabolic inhibitory nanosuspensions compared to conventional nanosuspensions” (Drug Delivery, 2021).
≈ marks a conversion by molar mass, not a printed value.

How the values were obtained:
[1] = design: method as in Bi et al., 2019; details: piperine as a bioenhancer; ref Bi et al., 2019; cited from earlier work
[2] = design: method as in Xiao et al., 2005; details: rats, radiolabeled quercetin by gavage, free or metabolized; ref Xiao et al., 2005; cited from earlier work
[3] = Solubility of Que in release medium; assay type: physicochemical; details: PBS containing 0.1% (w/v) Tween 80 (pH 7.4)
[4] = design: method as in Justino et al., 2004; details: rats, single oral 10 mg quercetin/200 g body weight, an hour later; ref Justino et al., 2004; cited from earlier work
[5] = design: method as in Xiao et al., 2005; details: ref Xiao et al., 2005, cited from earlier work

With `O=C(/C=C/C=C/c1ccc2c(c1)OCO2)N1CCCCC1` [piperine, Piperine] as the molecule, how does the Bioavailability of silybin [1] read?
The Bioavailability of silybin was 146–181%.

For `O=c1c(O)c(-c2ccc(O)c(O)c2)oc2cc(O)cc(O)c12` [Quercetin, 3,3′,4′,5,7-pentahydroxyflavone], which Total quercetin absorbed [2] is on record?
The Total quercetin absorbed was 20%.

What about the solubility [3] of the same molecule?
The solubility was 30 µg/mL (≈ 99.3 µM).

And the Quercetin metabolized [4]?
The Quercetin metabolized was 93%.

What about the “Solubility in artificial gastric juice” value ([5]; artificial gastric juice) of the same molecule?
Its value is 5.5 µg/mL (≈ 18.2 µM).

What about the “Solubility in artificial intestinal juice” value ([5]; artificial intestinal juice) of the same molecule?
The value was 28.9 µg/mL (≈ 95.6 µM).

What about the Solubility in water ([5]; water) of the same molecule?
The Solubility in water was “about 0.09 μg/mL”.
